Results published in PubChem BioAssay (NCI).
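Protocol summary: plate cells (96-well), add compound at 5 concentrations, incubate 48 h, interpolate endpoints linearly. At the TGI there is no net growth.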

How the values were obtained:
Assay in all cases: inhibition of tumour cell growth, NCI panel, 48 h
[1] = test system: 786-0 renal
[2] = test system: A498 renal
[3] = test system: A549 NSCLC
[4] = test system: ACHN renal
[5] = test system: BT-549 breast
[6] = test system: CAKI-1 renal
[7] = test system: CCRF-CEM leukemia
[8] = test system: COLO 205 colon
[9] = test system: DU-145 prostate
[10] = test system: EKVX NSCLC
[11] = test system: HCC-2998 colon
[12] = test system: HCT-116 colon
[13] = test system: HCT-15 colon
[14] = test system: HOP-62 NSCLC
[15] = test system: HOP-92 NSCLC
[16] = test system: HS 578T breast
[17] = test system: HT29 colon
[18] = test system: IGROV1 ovarian
[19] = test system: K-562 leukemia
[20] = test system: KM12 colon
[21] = test system: LOX IMVI melanoma
[22] = test system: M14 melanoma
[23] = test system: MALME-3M melanoma
[24] = test system: MCF7 breast
[25] = test system: MDA-MB-231 breast
[26] = test system: MDA-MB-435
[27] = test system: MDA-N
[28] = test system: MOLT-4 leukemia
[29] = test system: NCI-H226 lung
[30] = test system: NCI-H23 lung
[31] = test system: NCI-H460 lung
[32] = test system: NCI-H522 lung
[33] = test system: NCI/ADR-RES ovarian
[34] = test system: OVCAR-3 ovarian
[35] = test system: OVCAR-4 ovarian
[36] = test system: OVCAR-5 ovarian
[37] = test system: OVCAR-8 ovarian
[38] = test system: PC-3 prostate
[39] = test system: RPMI-8226 leukemia
[40] = test system: RXF 393 renal
[41] = test system: SF-268 CNS
[42] = test system: SF-295 CNS
[43] = test system: SF-539 CNS
[44] = test system: SK-MEL-2 melanoma
[45] = test system: SK-MEL-28 melanoma
[46] = test system: SK-MEL-5 melanoma
[47] = test system: SK-OV-3 ovarian
[48] = test system: SN12C renal
[49] = test system: SNB-19 CNS
[50] = test system: SNB-75 CNS
[51] = test system: SR leukemia
[52] = test system: SW-620 colon
[53] = test system: T-47D breast
[54] = test system: TK-10 renal
[55] = test system: U251 CNS
[56] = test system: UACC-257 melanoma
[57] = test system: UACC-62 melanoma
[58] = test system: UO-31 renal
[59] = test system: HL-60(TB) leukemia

## Cn1c2ccccc2c2c3c(=O)[nH][nH]c(=O)c3c3c4ccccc4n(C)c3c21
[1]
  TGI: > 100 µM
[2]
  TGI: > 100 µM
[3]
  TGI: > 100 µM
[4]
  TGI: > 100 µM
[5]
  TGI: > 100 µM
[6]
  TGI: > 100 µM
[7]
  TGI: > 100 µM
[8]
  TGI: > 100 µM
[9]
  TGI: > 100 µM
[10]
  TGI: > 100 µM
[11]
  TGI: > 100 µM
[12]
  TGI: > 100 µM
[13]
  TGI: > 100 µM
[14]
  TGI: > 100 µM
[15]
  TGI: > 100 µM
[16]
  TGI: > 100 µM
[17]
  TGI: > 100 µM
[18]
  TGI: > 100 µM
[19]
  TGI: > 100 µM
[20]
  TGI: > 100 µM
[21]
  TGI: > 100 µM
[22]
  TGI: > 100 µM
[23]
  TGI: > 100 µM
[24]
  TGI: > 100 µM
[25]
  TGI: > 100 µM
[26]
  TGI: > 100 µM
[27]
  TGI: > 100 µM
[28]
  TGI: > 100 µM
[29]
  TGI: > 100 µM
[30]
  TGI: > 100 µM
[31]
  TGI: > 100 µM
[32]
  TGI: > 100 µM
[33]
  TGI: > 100 µM
[34]
  TGI: > 100 µM
[35]
  TGI: > 100 µM
[36]
  TGI: > 100 µM
[37]
  TGI: > 100 µM
[38]
  TGI: > 100 µM
[39]
  TGI: > 100 µM
[40]
  TGI: > 100 µM
[41]
  TGI: > 100 µM
[42]
  TGI: > 100 µM
[43]
  TGI: > 100 µM
[44]
  TGI: > 100 µM
[45]
  TGI: > 100 µM
[46]
  TGI: > 100 µM
[47]
  TGI: > 100 µM
[48]
  TGI: > 100 µM
[49]
  TGI: > 100 µM
[50]
  TGI: > 100 µM
[51]
  TGI: 0.252 µM
[52]
  TGI: > 100 µM
[53]
  TGI: > 100 µM
[54]
  TGI: > 100 µM
[55]
  TGI: > 100 µM
[56]
  TGI: > 100 µM
[57]
  TGI: > 100 µM
[58]
  TGI: > 100 µM

## COc1ccc2c(c1)-c1nc(=S)n(CCN(C)C)c3ccc([N+](=O)[O-])c(c13)N2
[1]
  TGI: 1.8 µM
[2]
  TGI: 24.5 µM
[3]
  TGI: 2.28 µM
[4]
  TGI: 4.97 µM
[5]
  TGI: 24 µM
[6]
  TGI: 7.61 µM
[8]
  TGI: 5.97 µM
[9]
  TGI: 2.93 µM
[10]
  TGI: 7.29 µM
[11]
  TGI: 2.15 µM
[12]
  TGI: 1.56 µM
[13]
  TGI: 4.76 µM
[14]
  TGI: 2.24 µM
[15]
  TGI: 27.7 µM
[16]
  TGI: 7.69 µM
[17]
  TGI: 2.25 µM
[18]
  TGI: 2.55 µM
[19]
  TGI: 2.13 µM
[20]
  TGI: 6.27 µM
[21]
  TGI: 2.29 µM
[22]
  TGI: 7.43 µM
[23]
  TGI: 2.49 µM
[24]
  TGI: 3.43 µM
[25]
  TGI: 2.68 µM
[26]
  TGI: 7.82 µM
[27]
  TGI: 2.19 µM
[28]
  TGI: 0.741 µM
[29]
  TGI: 24.1 µM
[30]
  TGI: 17.9 µM
[31]
  TGI: 1.71 µM
[32]
  TGI: 2.04 µM
[33]
  TGI: 3.61 µM
[34]
  TGI: 19.3 µM
[35]
  TGI: 13.3 µM
[36]
  TGI: 8.04 µM
[37]
  TGI: 2.2 µM
[38]
  TGI: 4.36 µM
[39]
  TGI: 2.76 µM
[40]
  TGI: 3.3 µM
[41]
  TGI: 2.16 µM
[42]
  TGI: 18.3 µM
[43]
  TGI: 2.5 µM
[44]
  TGI: 24.3 µM
[45]
  TGI: 2.88 µM
[46]
  TGI: 7.61 µM
[47]
  TGI: 18 µM
[48]
  TGI: 2.05 µM
[49]
  TGI: 3.87 µM
[50]
  TGI: 2.7 µM
[51]
  TGI: 2.07 µM
[52]
  TGI: 3.07 µM
[53]
  TGI: 12.5 µM
[54]
  TGI: 16.5 µM
[55]
  TGI: 2.44 µM
[56]
  TGI: 5.92 µM
[57]
  TGI: 23.5 µM
[58]
  TGI: 13.1 µM

## CC(=O)Oc1ccc2c(c1)O/C(=C\c1ccc(O)cc1)C2=O
[1]
  TGI: > 100 µM
[3]
  TGI: > 100 µM
[4]
  TGI: > 100 µM
[5]
  TGI: > 100 µM
[6]
  TGI: > 100 µM
[7]
  TGI: > 100 µM
[8]
  TGI: > 100 µM
[9]
  TGI: > 100 µM
[10]
  TGI: > 100 µM
[11]
  TGI: > 100 µM
[12]
  TGI: > 100 µM
[13]
  TGI: > 100 µM
[59]
  TGI: > 100 µM
[14]
  TGI: > 100 µM
[16]
  TGI: > 100 µM
[18]
  TGI: > 100 µM
[19]
  TGI: > 100 µM
[20]
  TGI: > 100 µM
[22]
  TGI: > 100 µM
[24]
  TGI: > 100 µM
[25]
  TGI: > 100 µM
[26]
  TGI: > 100 µM
[27]
  TGI: > 100 µM
[28]
  TGI: > 100 µM
[29]
  TGI: > 100 µM
[30]
  TGI: > 100 µM
[31]
  TGI: > 100 µM
[32]
  TGI: > 100 µM
[33]
  TGI: > 100 µM
[34]
  TGI: > 100 µM
[35]
  TGI: > 100 µM
[37]
  TGI: > 100 µM
[38]
  TGI: > 100 µM
[39]
  TGI: > 100 µM
[40]
  TGI: > 100 µM
[41]
  TGI: > 100 µM
[42]
  TGI: > 100 µM
[43]
  TGI: > 100 µM
[45]
  TGI: > 100 µM
[46]
  TGI: > 100 µM
[47]
  TGI: > 100 µM
[48]
  TGI: > 100 µM
[49]
  TGI: > 100 µM
[50]
  TGI: > 100 µM
[51]
  TGI: > 100 µM
[52]
  TGI: > 100 µM
[53]
  TGI: > 100 µM
[54]
  TGI: > 100 µM
[55]
  TGI: > 100 µM
[56]
  TGI: > 100 µM
[57]
  TGI: > 100 µM
[58]
  TGI: > 100 µM

## CC(=O)Nc1ccc2c(c1)nc1c3ccccc3ccn21
[1]
  TGI: > 100 µM
[2]
  TGI: > 100 µM
[3]
  TGI: > 100 µM
[4]
  TGI: > 100 µM
[5]
  TGI: > 100 µM
[6]
  TGI: > 100 µM
[7]
  TGI: > 100 µM
[8]
  TGI: > 100 µM
[9]
  TGI: > 100 µM
[10]
  TGI: > 100 µM
[12]
  TGI: > 100 µM
[13]
  TGI: > 100 µM
[59]
  TGI: > 100 µM
[14]
  TGI: > 100 µM
[15]
  TGI: > 100 µM
[16]
  TGI: > 100 µM
[17]
  TGI: > 100 µM
[18]
  TGI: > 100 µM
[19]
  TGI: > 100 µM
[20]
  TGI: > 100 µM
[21]
  TGI: > 100 µM
[22]
  TGI: > 100 µM
[23]
  TGI: > 100 µM
[24]
  TGI: > 100 µM
[25]
  TGI: > 100 µM
[26]
  TGI: > 100 µM
[27]
  TGI: > 100 µM
[28]
  TGI: > 100 µM
[29]
  TGI: > 100 µM
[30]
  TGI: > 100 µM
[31]
  TGI: > 100 µM
[32]
  TGI: > 100 µM
[33]
  TGI: > 100 µM
[35]
  TGI: > 100 µM
[36]
  TGI: > 100 µM
[37]
  TGI: > 100 µM
[38]
  TGI: > 100 µM
[40]
  TGI: > 100 µM
[41]
  TGI: > 100 µM
[42]
  TGI: > 100 µM
[43]
  TGI: > 100 µM
[44]
  TGI: > 100 µM
[45]
  TGI: > 100 µM
[46]
  TGI: > 100 µM
[47]
  TGI: > 100 µM
[48]
  TGI: > 100 µM
[49]
  TGI: > 100 µM
[50]
  TGI: > 100 µM
[51]
  TGI: > 100 µM
[52]
  TGI: > 100 µM
[53]
  TGI: > 100 µM
[54]
  TGI: > 100 µM
[55]
  TGI: > 100 µM
[56]
  TGI: > 100 µM
[57]
  TGI: > 100 µM
[58]
  TGI: > 100 µM
